Results: US20070259927A1, “Remedy for Diabetes” (Takeda Pharmaceutical Company Limited, priority 2004, published 2007)

Legend:
Type in all cases: in vivo
[1] = tested on: db/db mouse; experiment: Experimental Example 2: db/db mouse, powder diet for 5 weeks, pioglitazone and vildagliptin alone or combined; conditions: db/db mice, in powder diet 5 weeks, mean (n=8)±standard deviation; for pancreatic insulin content: pancreas removed day 37
From the text: First of all, db/db mice (32 mice) were divided into 4 groups of F to I (8 mice in each group), and
a powder diet (trade name: CE-2, Clea Japan, Inc., hereinafter the same) was given to group F (control group), a powder diet containing pioglitazone hydrochloride (0.01 (w/w) % as pioglitazone) was given to group G,
a powder diet containing pioglitazone hydrochloride
In addition, a powder diet was given to db/+m mice for 5 consecutive weeks, and the mice were used as group J (normal group).
(§1) In the above-mentioned groups F to I, blood samples were collected from mice on day 35 from the start of the powder diet administration, and plasma glucose level and plasma insulin level were measured. On day 37 from the start of the powder diet administration, the pancreas was removed from the mice, and the pancreatic insulin content was measured.
The plasma glucose level, plasma insulin level, plasma insulin/plasma glucose value, and the pancreatic insulin content were measured in the same manner as in Experimental Example 1.
The results are shown in [Table 5] to [Table 8]. The values in the tables show mean (n=8)±standard deviation.

[2] = tested on: db/db mouse; experiment: Experimental Example 3: db/db mouse, powder diet for 4 weeks, pioglitazone and sitagliptin alone or combined; conditions: db/db mice, in powder diet 4 weeks, mean (n=8)±standard deviation; for plasma insulin level / plasma glucose level / plasma insulin/plasma glucose value: day 28; for plasma insulin level / pancreatic insulin content: pioglitazone 0.01(w/w)%, sitagliptin 0.03(w/w)%; for plasma glucose level: pioglitazone hydrochloride 0.01(w/w)% as pioglitazone, sitagliptin hydrochloride 0.03(w/w)% as sitagliptin; for plasma insulin/plasma glucose value: plasma insulin level divided by plasma glucose level; for pancreatic insulin content: pancreas removed day 29
From the text: First of all, db/db mice (32 mice) were divided into 4 groups of […] mice in each group), and a powder diet (trade name: CE-2, Clea Japan, Inc., hereinafter the same) was given to group K (control group), a powder diet containing pioglitazone hydrochloride (0.01(w/w) % as pioglitazone) was given to group L, a powder diet containing sitagliptin hydrochloride (0.03(w/w) % as sitagliptin) was given to group M, and a powder diet containing pioglitazone hydrochloride (0.01(w/w) % as pioglitazone) and sitagliptin hydrochloride (0.03(w/w) % as sitagliptin) was given to group N, for 4 consecutive weeks. In addition, a powder diet was given to db/+m mice for 4 consecutive weeks, and the mice were used as group 0 (normal group). In the above-mentioned groups K to N, blood samples were collected from mice on day 28 from the start of the powder diet administration, and plasma glucose level and plasma insulin level were measured. […] The results are shown in [Table 9] to [Table 12]. The values in the tables show mean (n=8)±standard deviation.

[3] = tested on: db/db mouse; experiment: Experimental Example 1: db/db mouse, powder diet for 3 weeks, pioglitazone and compound A alone or combined; conditions: db/db mice, in powder diet 3 weeks, mean (n=8)±standard deviation; for plasma insulin level / plasma glucose level / plasma insulin/plasma glucose value: day 21; for plasma insulin level / pancreatic insulin content: pioglitazone 0.01(w/w)%, compound A 0.03(w/w)% (½ fumarate); for plasma glucose level: pioglitazone hydrochloride 0.01(w/w)% as pioglitazone, ½ fumarate of compound A 0.03(w/w)% as compound A; for plasma insulin/plasma glucose value: plasma insulin level divided by plasma glucose level; for pancreatic insulin content: pancreas removed day 23
From the text: First of all, db/db mice (32 mice) were divided into 4 groups of A to D (8 mice in each group), and a powder diet (trade name: CE-2, Clea Japan, Inc., hereinafter the same) was given to group A (control group), a powder diet containing pioglitazone hydrochloride (0.01(w/w) % as pioglitazone) was given to group B, a powder diet containing ½ fumarate of compound A (0.03(w/w) % as compound A) was given to group C, and a powder diet containing pioglitazone hydrochloride (0.01(w/w) % as pioglitazone) and ½ fumarate of compound A (0.03(w/w) % as compound A) was given to group D, for 3 consecutive weeks.
In addition, a powder diet was given to db/+m mice for 3 consecutive weeks, and the mice were used as group E (normal group).
as §1, with “A” for “F”, “E,” for “I,”, “21” for “35”, “23” for “37”
The plasma glucose level was measured by an enzyme method using L type Wako Glu2 (trade name, Wako Pure Chemical Industries, Ltd.).
In addition, the plasma insulin level was measured by a radioimmunoassay (trade name, ShionoRIA insulin), and the plasma insulin level was divided by the plasma glucose level to determine the plasma insulin/plasma glucose value.
The pancreatic insulin content was measured as follows.
First, the mouse pancreas was disrupted in its 10 times weight of 75% ethanol (containing 0.15 M hydrochloric acid). The obtained disrupted solution was left standing overnight under the shading conditions at 4·^□C, and centrifuged at 15000 rpm for 5 min. The obtained supernatant was appropriately diluted with PBS(−) (phosphate-buffered saline) containing 0.1% BSA (bovine serum albumin). The insulin content of the diluted solution was measured in the same manner as in the above-mentioned plasma insulin level, and the insulin content per pancreatic tissue weight was calculated.
The results are shown in [Table 1] to [Table 4]. The values in the tables show mean (n=8)±standard deviation.

[4] = pioglitazone 0.01(w/w)%, vildagliptin 0.03(w/w)%

Compound `N#C[C@@H]1CCCN1C(=O)CNC12CC3CC(CC(O)(C3)C1)C2` [vildagliptin, (2S)-1-{[(3-hydroxy-1-adamantyl)amino]acetyl}-2-cyano-pyrrolidine] has a pancreatic insulin content [1, 4] of 559.2 ± 169.2 μU/mg tissue.

`N[C@@H](CC(=O)N1CCn2c(nnc2C(F)(F)F)C1)Cc1cc(F)c(F)cc1F` [sitagliptin] was tested, and the plasma insulin level [2] was 103.1 ± 47.2 μU/mL, the plasma glucose level [2] was 492.3 ± 38.3 mg/dL and the “plasma insulin/plasma glucose value” [2] was 21.6 ± 11.3 μU/mg. The pancreatic insulin content [2] was 331.1 ± 79.6 μU/mg tissue.

In the case of `CCc1ccc(CCOc2ccc(CC3SC(=O)NC3=O)cc2)nc1` (stereo not drawn) [pioglitazone], the plasma insulin level [2] is reported as 739.5 ± 472.8 μU/mL, the plasma glucose level [2] is reported as 341.0 ± 100.6 mg/dL and the “plasma insulin/plasma glucose value” [2] is reported as 261.7 ± 217.9 μU/mg. For the same compound, the pancreatic insulin content [2] was 1117.2 ± 479.7 μU/mg tissue, the plasma insulin level [3] was 289.2 ± 261.8 μU/mL and the plasma glucose level [3] was 411.0 ± 54.4 mg/dL. The “plasma insulin/plasma glucose value” [3] was 72.9 ± 64.5 μU/mg, the pancreatic insulin content [3] was 2314.2 ± 1285.4 μU/mg tissue and the plasma insulin level ([1]; day 35, pioglitazone 0.01(w/w)%, vildagliptin 0.03(w/w)%) was 200.2 ± 78.0 μU/mL. The plasma glucose level ([1]; day 35, pioglitazone hydrochloride 0.01(w/w)% as pioglitazone, vildagliptin 0.03(w/w)%) was 348.5 ± 97.4 mg/dL, the “plasma insulin/plasma glucose value” ([1]; day 35, plasma insulin level divided by plasma glucose level) was 63.9 ± 35.9 μU/mg and the pancreatic insulin content [1, 4] was 834.7 ± 275.3 μU/mg tissue.

In the case of `Cc1ccc(-c2c(CN)c(CC(C)C)nc(C)c2C(=O)O)cc1` [compound A, 5-(aminomethyl)-6-isobutyl-2-methyl-4-(4-methylphenyl)nicotinic acid], the plasma insulin level [3] is reported as 135.5 ± 115.4 μU/mL, the plasma glucose level [3] is reported as 502.0 ± 54.3 mg/dL and the “plasma insulin/plasma glucose value” [3] is reported as 29.0 ± 28.4 μU/mg. It also gave a pancreatic insulin content [3] of 918.4 ± 328.6 μU/mg tissue.
